Laboratory results as given in article PMC10797590, “Exploring Rigid and Flexible Scaffolds to Develop Potent Glucuronic Acid Glycodendrimers for Dengue Virus Inhibition” (Bioconjugate Chemistry, 2023).

Assays:
[1] = biological target: T1, dengue virus envelope protein 2 (DENV2) (Dengue virus type 2, UniProt P29990); assay: SPR binding study of GlcA glycodendrimers on immobilized DENV2 (Biacore 3000, CM4 chip); parameters: species or system dengue virus serotype 2; conditions: for SPR binding response: GD flowed at 100 μM over immobilized DENV2; for Kd: read-out: dissociation constant KD, steady-state analysis of SPR, 1:1 Langmuir model, immobilized DENV2, 25 °C
T1 construct: Dengue virus envelope protein 2 (DENV2) was purchased from the Native Antigen Company; purchased Native Antigen Company
Protocol: In order to evaluate the ability of GDs 4a–f, 9a–c, and 12a–c to interact with dengue virus envelope protein 2 (DENV2), an SPR binding study was carried out.
Compounds 4a–f, 9a–c, and 12a–c were flowed on immobilized DENV2 at a concentration of 100 μM (Figure 1).
Dengue virus envelope protein 2 (DENV2) was purchased from the Native Antigen Company. SPR sensor chips CM4 (carboxymethylated dextran) and other reagents used in SPR experiments were purchased from GE Healthcare. SPR experiments were performed with a Biacore 3000.
SPR experiments were performed at 25 °C with a Biacore 3000 (GE Healthcare). PBST (10 mm phosphate, pH 7.40, 150 mm NaCl, and 0.005% v/v surfactant P20) was used as a running buffer. A solution with the dengue virus serotype 2 protein (DENV2) was adjusted to 20 μg/mL in 10 mM citrate pH 4.00 buffer, and the protein was immobilized in flow cell 1 of a CM4 sensor chip by following the amine coupling method according to the manufacturer’s instructions. Prior to injection over the sensor chip, DENV2 was mixed with a 4-fold molar excess of HS, for 30 min at 4 °C, to protect the GAG-binding domains of the envelope protein. The immobilization response was 2000 RU, and then, the sensor surface was washed with 1 M NaCl to remove the bound HS. Sensor chip flow cell 2 was activated, blocked, and used as a reference surface. Blank samples and concentration series were injected on a CM4 chip at a flow rate of 40 μL/min for 180 s, and dissociation was registered for 180 s.
Initially, compounds 4a–f, 9a–c, and 12a–c were flowed on the immobilized DENV2 at a 100 μM concentration. Then different concentration of GDs (5–125 μM) were flowed on the immobilized DENV2 (compound 12b: 5–125 μM; 12c: 5–150 μM; 9b: 25–250 μM; 4c: 25-250 μM).25–250 μM). Data processing and analysis were carried out with Biaevaluation v.4.1.1 (GE Healthcare).
All signals were blank-subtracted, reference-corrected, and globally adjusted to an adequate kinetic model to obtain binding parameters. […] Instead, a steady-state analysis kinetic analysis was carried out assuming the 1:1 Langmuir model. The value of KA is obtained by fitting a plot of RU in the plateau region against the GD concentration, which generates the following equations. [drawing 1] [drawing 2] [drawing 3] [drawing 4] KD is calculated as the inverse of KA (KD = 1/KA).

[2] = biological target: DENV2 envelope protein; conditions: SPR, same experimental conditions as current study; cited from earlier work

| Compound | SPR binding response [1] [RU] | Kd [1] [nM] | fold difference of KD of heparin versus GDs 12b and 12c ([1]; heparin KD 56 nM vs 12b and 12c KD) | Kd [2] [nM] |
| --- | --- | --- | --- | --- |
| O=C(O)[C@H]1O[C@@H](OCCCn2cc(COc3cc(OCc4cn(CCCO[C@@H]5O[C@H](C(=O)O)[C@@H](O)[C@H](O)[C@H]5O)nn4)cc(OCc4cn(CCCO[C@@H]5O[C@H](C(=O)O)[C@@H](O)[C@H](O)[C@H]5O)nn4)c3)nn2)[C@H](O)[C@@H](O)[C@@H]1O [4c] | 60.8 | – | – | – |
| O=C(O)[C@H]1O[C@@H](OCCCn2cc(COc3cc(COc4cc(OCc5cc(OCc6cn(CCCO[C@@H]7O[C@H](C(=O)O)[C@@H](O)[C@H](O)[C@H]7O)nn6)cc(OCc6cn(CCCO[C@@H]7O[C@H](C(=O)O)[C@@H](O)[C@H](O)[C@H]7O)nn6)c5)cc(OCc5cc(OCc6cn(CCCO[C@@H]7O[C@H](C(=O)O)[C@@H](O)[C@H](O)[C@H]7O)nn6)cc(OCc6cn(CCCO[C@@H]7O[C@H](C(=O)O)[C@@H](O)[C@H](O)[C@H]7O)nn6)c5)c4)cc(OCc4cn(CCCO[C@@H]5O[C@H](C(=O)O)[C@@H](O)[C@H](O)[C@H]5O)nn4)c3)nn2)[C@H](O)[C@@H](O)[C@@H]1O [4d] | 0.3 | – | – | – |
| O=C(O)[C@H]1O[C@@H](OCCCn2cc(COc3cc4c5cc(OCc6cn(CCCO[C@@H]7O[C@H](C(=O)O)[C@@H](O)[C@H](O)[C@H]7O)nn6)c(OCc6cn(CCCO[C@@H]7O[C@H](C(=O)O)[C@@H](O)[C@H](O)[C@H]7O)nn6)cc5c5cc(OCc6cn(CCCO[C@@H]7O[C@H](C(=O)O)[C@@H](O)[C@H](O)[C@H]7O)nn6)c(OCc6cn(CCCO[C@@H]7O[C@H](C(=O)O)[C@@H](O)[C@H](O)[C@H]7O)nn6)cc5c4cc3OCc3cn(CCCO[C@@H]4O[C@H](C(=O)O)[C@@H](O)[C@H](O)[C@H]4O)nn3)nn2)[C@H](O)[C@@H](O)[C@@H]1O [4e] | 0.0 | – | – | – |
| O=C(O)[C@H]1O[C@@H](OCCCn2cc(COc3cc(COCc4cc(OCc5cn(CCCO[C@@H]6O[C@H](C(=O)O)[C@@H](O)[C@H](O)[C@H]6O)nn5)cc(OCc5cn(CCCO[C@@H]6O[C@H](C(=O)O)[C@@H](O)[C@H](O)[C@H]6O)nn5)c4)cc(OCc4cn(CCCO[C@@H]5O[C@H](C(=O)O)[C@@H](O)[C@H](O)[C@H]5O)nn4)c3)nn2)[C@H](O)[C@@H](O)[C@@H]1O [9a] | 5.0 | – | – | – |
| O=C(O)[C@H]1O[C@@H](OCCCn2cc(COc3cc(COCc4cc(OCc5cn(CCCO[C@@H]6O[C@H](C(=O)O)[C@@H](O)[C@H](O)[C@H]6O)nn5)c(OCc5cn(CCCO[C@@H]6O[C@H](C(=O)O)[C@@H](O)[C@H](O)[C@H]6O)nn5)c(OCc5cn(CCCO[C@@H]6O[C@H](C(=O)O)[C@@H](O)[C@H](O)[C@H]6O)nn5)c4)cc(OCc4cn(CCCO[C@@H]5O[C@H](C(=O)O)[C@@H](O)[C@H](O)[C@H]5O)nn4)c3OCc3cn(CCCO[C@@H]4O[C@H](C(=O)O)[C@@H](O)[C@H](O)[C@H]4O)nn3)nn2)[C@H](O)[C@@H](O)[C@@H]1O [9b] | 68.5 | 1750 | – | – |
| O=C(O)[C@H]1O[C@@H](OCCCn2cc(COc3cc(COc4cc(COCc5cc(OCc6cc(OCc7cn(CCCO[C@@H]8O[C@H](C(=O)O)[C@@H](O)[C@H](O)[C@H]8O)nn7)cc(OCc7cn(CCCO[C@@H]8O[C@H](C(=O)O)[C@@H](O)[C@H](O)[C@H]8O)nn7)c6)cc(OCc6cc(OCc7cn(CCCO[C@@H]8O[C@H](C(=O)O)[C@@H](O)[C@H](O)[C@H]8O)nn7)cc(OCc7cn(CCCO[C@@H]8O[C@H](C(=O)O)[C@@H](O)[C@H](O)[C@H]8O)nn7)c6)c5)cc(OCc5cc(OCc6cn(CCCO[C@@H]7O[C@H](C(=O)O)[C@@H](O)[C@H](O)[C@H]7O)nn6)cc(OCc6cn(CCCO[C@@H]7O[C@H](C(=O)O)[C@@H](O)[C@H](O)[C@H]7O)nn6)c5)c4)cc(OCc4cn(CCCO[C@@H]5O[C@H](C(=O)O)[C@@H](O)[C@H](O)[C@H]5O)nn4)c3)nn2)[C@H](O)[C@@H](O)[C@@H]1O [9c] | 0.0 | – | – | – |
| O=C(O)[C@H]1O[C@@H](OCCCn2cc(CN(Cc3cn(CCCO[C@@H]4O[C@H](C(=O)O)[C@@H](O)[C@H](O)[C@H]4O)nn3)Cc3cn(CCCO[C@@H]4O[C@H](C(=O)O)[C@@H](O)[C@H](O)[C@H]4O)nn3)nn2)[C@H](O)[C@@H](O)[C@@H]1O [12a] | 9.8 | – | – | – |
| O=C(O)[C@H]1O[C@@H](OCCCn2cc(COc3cc(COCCN(CCOCc4cc(OCc5cn(CCCO[C@@H]6O[C@H](C(=O)O)[C@@H](O)[C@H](O)[C@H]6O)nn5)cc(OCc5cn(CCCO[C@@H]6O[C@H](C(=O)O)[C@@H](O)[C@H](O)[C@H]6O)nn5)c4)CCOCc4cc(OCc5cn(CCCO[C@@H]6O[C@H](C(=O)O)[C@@H](O)[C@H](O)[C@H]6O)nn5)cc(OCc5cn(CCCO[C@@H]6O[C@H](C(=O)O)[C@@H](O)[C@H](O)[C@H]6O)nn5)c4)cc(OCc4cn(CCCO[C@@H]5O[C@H](C(=O)O)[C@@H](O)[C@H](O)[C@H]5O)nn4)c3)nn2)[C@H](O)[C@@H](O)[C@@H]1O [12b] | 203.4 | 487 | – | – |
| O=C(O)[C@H]1O[C@@H](OCCCn2cc(COc3cc(COCC(COCc4cc(OCc5cn(CCCO[C@@H]6O[C@H](C(=O)O)[C@@H](O)[C@H](O)[C@H]6O)nn5)cc(OCc5cn(CCCO[C@@H]6O[C@H](C(=O)O)[C@@H](O)[C@H](O)[C@H]6O)nn5)c4)(COCc4cc(OCc5cn(CCCO[C@@H]6O[C@H](C(=O)O)[C@@H](O)[C@H](O)[C@H]6O)nn5)cc(OCc5cn(CCCO[C@@H]6O[C@H](C(=O)O)[C@@H](O)[C@H](O)[C@H]6O)nn5)c4)COCc4cc(OCc5cn(CCCO[C@@H]6O[C@H](C(=O)O)[C@@H](O)[C@H](O)[C@H]6O)nn5)cc(OCc5cn(CCCO[C@@H]6O[C@H](C(=O)O)[C@@H](O)[C@H](O)[C@H]6O)nn5)c4)cc(OCc4cn(CCCO[C@@H]5O[C@H](C(=O)O)[C@@H](O)[C@H](O)[C@H]5O)nn4)c3)nn2)[C@H](O)[C@@H](O)[C@@H]1O [12c] | 153 | 624 | – | – |
| heparin [reference compound] | – | – | 8.6–11 fold | 56 |
